Molecular target: Mitogen-activated protein kinase kinase kinase kinase 1 (Homo sapiens, UniProt Q92918)
Test: HPK1 Kinase Assay (Biochemical Assay)
Experimental: A recombinant fusion protein consisting of full-length human HPK1 (MAP4K1) with an N-terminal Glutatione S-transferase (GST) tag was produced in insect cells Sf21 using the baculovirus expression system. GST-HPK1 protein was purified from cell lysates by glutathione Sepharose affinity chromatography. The assay is run in three continuous steps: 1) the HPK1 enzymatic kinase reaction, 2) an ATP depletion, and 3) the ADP detection, the steps 2 and 3 are performed with ADP-Glo Kinase Assay kit from Promega (V9101). […] After 120 minutes, the reaction was stopped by adding 5 μL of ADP-Glo reagent (Promega, V9101) and incubating for 40 min. in the dark at 23 C. To determine the level of ADP, 10 μl ADP-Glo Detection solution was added and incubated for 1 hour at 23 C. in the dark.

Mitogen-activated protein kinase kinase kinase kinase 1, sequence (Q92918 whole entry): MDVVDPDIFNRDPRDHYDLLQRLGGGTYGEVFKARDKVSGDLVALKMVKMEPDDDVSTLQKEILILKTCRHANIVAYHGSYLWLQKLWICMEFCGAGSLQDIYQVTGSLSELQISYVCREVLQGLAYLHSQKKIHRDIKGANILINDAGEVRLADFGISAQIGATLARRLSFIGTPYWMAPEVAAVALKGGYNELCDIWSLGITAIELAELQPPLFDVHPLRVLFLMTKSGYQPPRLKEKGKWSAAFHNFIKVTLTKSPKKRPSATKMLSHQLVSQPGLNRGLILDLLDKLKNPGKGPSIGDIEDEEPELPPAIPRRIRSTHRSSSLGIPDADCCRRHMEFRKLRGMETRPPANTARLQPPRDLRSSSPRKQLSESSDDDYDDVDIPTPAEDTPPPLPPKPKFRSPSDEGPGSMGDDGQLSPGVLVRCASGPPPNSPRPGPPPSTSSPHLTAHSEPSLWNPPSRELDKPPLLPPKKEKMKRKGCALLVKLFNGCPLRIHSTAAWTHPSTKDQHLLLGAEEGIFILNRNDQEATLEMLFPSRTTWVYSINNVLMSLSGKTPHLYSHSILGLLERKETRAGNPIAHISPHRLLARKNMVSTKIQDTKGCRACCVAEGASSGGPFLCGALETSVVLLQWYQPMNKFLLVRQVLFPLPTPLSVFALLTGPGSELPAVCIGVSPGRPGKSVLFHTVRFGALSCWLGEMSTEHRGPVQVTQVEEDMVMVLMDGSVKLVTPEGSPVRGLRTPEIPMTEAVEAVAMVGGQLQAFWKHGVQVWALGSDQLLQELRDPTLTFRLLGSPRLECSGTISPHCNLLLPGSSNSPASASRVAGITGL

| IC50 | SMILES |
| --- | --- |
| > 1000 nM | Cc1c(N2CCc3cnc(Nc4cc5n(n4)CC(=O)N(C(C)C)CC5)nc3C2)cnc2c1NCCO2 [US20240025922, Example 89] |
| < 100 nM | COc1cccc(F)c1N1CCc2cnc(Nc3cnc4c(c3)CN(C)CC4)nc2C1 [US20240025922, Example 120] |
| > 1000 nM | Cc1cc(Nc2cc3c(cn2)CCN(c2cnc4c(c2Cl)NCCO4)C3)nn1CC(=O)N(C)C [US20240025922, Example 131] |

Source: BindingDB's records for patent US20240025922 (Merck Patent, 2024)
